Laboratory results: patent US20240109910A1, “HEXAHYDRO-5,8-EPOXYCYCLOHEPTA[c]PYRAZOLE DERIVATIVES USEFUL AS MODULATORS OF THE CB1 AND / OR CB2 RECEPTORS” (JANSSEN PHARMACEUTICA NV, priority 2019, published 2024)

Key:
[1] = target: hCB2 receptor (Homo sapiens, UniProt P34972); assay: Agonism of CB2 by detection of cAMP using HTRF; assay type: cell-based; settings: CHO cells stably expressing CB2 receptor; for EC50: cAMP HTRF, forskolin-stimulated, average if tested more than once, read-out: hCB2 CHO EC50; for Emax: normalized to DMSO and maximal activation (5 nM CP55940)
Method: (§1) Method for Assaying Agonism of CB1 or CB2 by Detection of cAMP Using Homogeneous Time-Resolved Fluorescence (HTRF®)
(§2) CHOP-K1 cells stably expressing the CB1 receptor (PerkinElmer, ES-110-C) or the CB2 receptor (PerkinElmer, ES-111-CF) were seeded into 384 well white TC-treated plates (Greiner 781080) at 7000 cells per well in Ham's media (Gibco #31765-035) supplemented with 10% FBS (Gibco #16000-044) and 500 μg/mL Geneticin (Gibco #10131-027) and cultured overnight. The next day, plates were washed one time in assay buffer (HBSS with Ca^2+ and Mg^2+ (Corning #21-023-CV)+20 mM HEPES (Corning #25-060-Cl) and 0.01% BSA (Sigma A2153)). In a separate compound plate (Greiner 781201-906), 50 nL of test compound or DMSO was transferred using the Echo 550 (Labcyte), then 40 μL/well of assay buffer with 0.5 mM IBMX, 2 μM Forskolin (Sigma F3917), and 0.01% BSA was added. For the CB1 assay, assay buffer was dumped from the cell plate and fresh assay buffer containing 0.5 mM IBMX (Sigma I5679) was added at 30 μL/well, and the plate was incubated for 1 hr at 37° C., 5% CO2. Following the IBMX pre-treatment step, buffer was dumped from the cell plate, and 20 μL/well of the assay buffer with test compound was transferred into the cell plate with a subsequent incubation of 20 min at room temperature. Reagents for cAMP detection (cisbio 62AM4PEJ) were prepared and subsequently transferred to the cell plate at 20 μL/well. Following a 1 hr incubation at room temperature, the plate was read on the Pherastar FX (BMG, excitation 320 nm, detection at 620 nm (donor) and 665 nm (acceptor)). The ratio of signal at 665 nm/620 nm was determined for each well in the plate. For each assay day, a cAMP standard curve was run in parallel to assess the range of response and determine the concentration of cAMP in each well. Control wells (n=16 of each) with no activation of CB1 receptor (DMSO) and maximal activation (5 nM CP55940, Sigma) were used to normalize the data and to determine signal-to-background ratio and Z′. For the CB2 assay, conditions were as described above for the CB1 assay, except that the IBMX preincubation step was not used and that the 20 min compound incubation step occurred in the incubator at 37° C., 5% CO2.
(§3) EC50 values were calculated from dose response curves by nonlinear regression analysis using PRISM software.
(§4) Representative compounds of the present invention were tested according to the procedures described in Biological Example 1 above, with results as listed in Table 3, below. If a compound was tested more than once (due to multiple samples or batches), then the value listed in Table 3 below represents the average of the measured values.

[2] = target: hCB1 receptor (Homo sapiens, UniProt P21554); assay: Agonism of CB1 by detection of cAMP using HTRF; assay type: cell-based; settings: CHO cells stably expressing CB1 receptor; for EC50: cAMP HTRF, forskolin-stimulated, average if tested more than once, read-out: hCB1 CHO EC50; for Emax: normalized to DMSO and maximal activation (5 nM CP55940)
Method: as §1, §2, §3, §4

Chain of hCB2 receptor (P34972 whole entry): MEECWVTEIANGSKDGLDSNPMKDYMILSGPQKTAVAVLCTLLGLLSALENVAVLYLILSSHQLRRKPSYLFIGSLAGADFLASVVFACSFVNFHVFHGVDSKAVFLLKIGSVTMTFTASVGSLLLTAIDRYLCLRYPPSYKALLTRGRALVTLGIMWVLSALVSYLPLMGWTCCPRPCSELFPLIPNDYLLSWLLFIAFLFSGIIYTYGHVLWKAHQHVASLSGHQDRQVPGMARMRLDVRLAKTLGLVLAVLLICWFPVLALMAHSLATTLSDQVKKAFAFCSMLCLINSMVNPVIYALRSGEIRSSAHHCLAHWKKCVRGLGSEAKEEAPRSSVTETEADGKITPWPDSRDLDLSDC
Chain of hCB1 receptor (P21554 whole entry): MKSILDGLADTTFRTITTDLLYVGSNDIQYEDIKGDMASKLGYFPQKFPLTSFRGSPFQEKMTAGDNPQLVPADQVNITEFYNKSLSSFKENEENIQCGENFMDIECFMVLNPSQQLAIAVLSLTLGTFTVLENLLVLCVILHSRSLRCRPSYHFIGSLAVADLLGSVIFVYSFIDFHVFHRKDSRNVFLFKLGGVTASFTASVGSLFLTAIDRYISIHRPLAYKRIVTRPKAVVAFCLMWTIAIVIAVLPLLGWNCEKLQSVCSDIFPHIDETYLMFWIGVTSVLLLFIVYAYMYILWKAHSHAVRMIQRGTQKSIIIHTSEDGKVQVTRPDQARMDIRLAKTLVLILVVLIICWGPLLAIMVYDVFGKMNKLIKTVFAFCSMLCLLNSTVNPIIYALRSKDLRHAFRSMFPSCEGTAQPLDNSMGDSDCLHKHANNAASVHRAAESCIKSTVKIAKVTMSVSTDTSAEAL

SMILES	EC50 [1] [nM]	Emax [1] [%]	EC50 [2] [nM]	Emax [2] [%]
CC(C)(C)NC(=O)c1nn(-c2ccc(F)cc2F)c2c1CC1CCC2O1 (stereo not drawn) [Compound 1, N-(tert-butyl)-1-(2,4-difluorophenyl)-1,4,5,6,7,8-hexahydro-5,8-epoxycyclohepta[c]pyrazole-3-carboxamide]	1.2	95.6	108	99
CC(C)(C)NC(=O)c1c2c(nn1-c1ccc(F)cc1F)C1CCC(C2)O1 (stereo not drawn) [Compound 2, N-(tert-butyl)-2-(2,4-difluorophenyl)-2,4,5,6,7,8-hexahydro-5,8-epoxycyclohepta[c]pyrazole-3-carboxamide]	2980	72.8	–	–
CC(C)(C)NC(=O)c1nn(-c2cnccn2)c2c1CC1CCC2O1 (stereo not drawn) [Compound 3, N-(tert-butyl)-1-(pyrazin-2-yl)-1,4,5,6,7,8-hexahydro-5,8-epoxycyclohepta[c]pyrazole-3-carboxamide]	3.8	99.7	2080	94.8
CC(C)(C)NC(=O)c1c2c(nn1-c1cnccn1)C1CCC(C2)O1 (stereo not drawn) [Compound 4, N-(tert-butyl)-2-(pyrazin-2-yl)-2,4,5,6,7,8-hexahydro-5,8-epoxycyclohepta[c]pyrazole-3-carboxamide]	4070	75.8	–	–
CC(C)(C)[C@@H](CO)NC(=O)c1nn(-c2cnccn2)c2c1C[C@@H]1CC[C@H]2O1 [Compound 7, (5S,8R)-N-((S)-1-hydroxy-3,3-dimethylbutan-2-yl)-1-(pyrazin-2-yl)-1,4,5,6,7,8-hexahydro-5,8-epoxycyclohepta[c]pyrazole-3-carboxamide]	0.56	100	–	–
CC(C)(C)[C@@H](CO)NC(=O)c1nn(-c2cnccn2)c2c1C[C@H]1CC[C@@H]2O1 [Compound 8, (5R,8S)-N-((S)-1-hydroxy-3,3-dimethylbutan-2-yl)-1-(pyrazin-2-yl)-1,4,5,6,7,8-hexahydro-5,8-epoxycyclohepta[c]pyrazole-3-carboxamide]	0.09	100	422	111
O=C(NC1(C(F)(F)F)CC1)c1nn(-c2cnccn2)c2c1CC1CCC2O1 (stereo not drawn) [Compound 9, 1-(pyrazin-2-yl)-N-(1-(trifluoromethyl)cyclopropyl)-1,4,5,6,7,8-hexahydro-5,8-epoxycyclohepta[c]pyrazole-3-carboxamide]	0.24	100	–	–
O=C(NC1(C(F)(F)F)CCC1)c1nn(-c2cnccn2)c2c1CC1CCC2O1 (stereo not drawn) [Compound 10, 1-(pyrazin-2-yl)-N-(1-(trifluoromethyl)cyclobutyl)-1,4,5,6,7,8-hexahydro-5,8-epoxycyclohepta[c]pyrazole-3-carboxamide]	0.04	100	571	90.3
CC(C)(CO)NC(=O)c1nn(-c2cnccn2)c2c1CC1CCC2O1 (stereo not drawn) [Compound 11, N-(1-hydroxy-2-methylpropan-2-yl)-1-(pyrazin-2-yl)-1,4,5,6,7,8-hexahydro-5,8-epoxycyclohepta[c]pyrazole-3-carboxamide]	7.1	99.2	–	–
CC(C)(C)[C@@H](CO)NC(=O)c1nn(-c2c[n+]([O-])ccn2)c2c1C[C@@H]1CC[C@H]2O1 [Compound 15, 3-((5S,8R)-3-(((S)-1-hydroxy-3,3-dimethylbutan-2-yl)carbamoyl)-5,6,7,8-tetrahydro-5,8-epoxycyclohepta[c]pyrazol-1(4H)-yl)pyrazine 1-oxide]	0.34	101	–	–
O=C(NC1(C(F)(F)F)CC1)c1nn(-c2c[n+]([O-])ccn2)c2c1CC1CCC2O1 (stereo not drawn) [Compound 17, 3-(3-((1-(trifluoromethyl)cyclopropyl)carbamoyl)-5,6,7,8-tetrahydro-5,8-epoxycyclohepta[c]pyrazol-1(4H)-yl)pyrazine 1-oxide]	0.12	100	–	–
CC(C)(CO)NC(=O)c1nn(-c2c[n+]([O-])ccn2)c2c1CC1CCC2O1 (stereo not drawn) [Compound 19, 3-(3-((1-hydroxy-2-methylpropan-2-yl)carbamoyl)-5,6,7,8-tetrahydro-5,8-epoxycyclohepta[c]pyrazol-1(4H)-yl)pyrazine 1-oxide]	1	100	–	–
CC(C)(C)c1nc(-c2nn(-c3c[n+]([O-])ccn3)c3c2CC2CCC3O2)no1 (stereo not drawn) [Compound 23, 3-(3-(5-(tert-butyl)-1,2,4-oxadiazol-3-yl)-5,6,7,8-tetrahydro-5,8-epoxycyclohepta[c]pyrazol-1(4H)-yl)pyrazine 1-oxide]	0.1	100	–	–
CC(C)(C)c1nnc(-c2nn(-c3c[n+]([O-])ccn3)c3c2CC2CCC3O2)[s+]1[O-] (stereo not drawn) [Compound 28, 3-(3-(5-(tert-butyl)-1-oxido-1,3,4-thiadiazol-2-yl)-5,6,7,8-tetrahydro-5,8-epoxycyclohepta[c]pyrazol-1(4H)-yl)pyrazine 1-oxide]	0.74	99	–	–
CC(C)(C)NC(=O)c1c2c(nn1-c1c[n+]([O-])ccn1)C1CCC(C2)O1 (stereo not drawn) [Compound 30, 3-(3-(tert-butylcarbamoyl)-5,6,7,8-tetrahydro-5,8-epoxycyclohepta[c]pyrazol-2(4H)-yl)pyrazine 1-oxide]	7970	66.3	–	–
CC(C)(C)c1nc(-c2nn(-c3cnccn3)c3c2CC2CCC3O2)no1 (stereo not drawn) [Compound 32, 3-(5-(tert-butyl)-1,2,4-oxadiazol-3-yl)-1-(pyrazin-2-yl)-1,4,5,6,7,8-hexahydro-5,8-epoxycyclohepta[c]pyrazole]	0.33	100	–	–
CC(C)(C)c1cnc(-c2nn(-c3cnccn3)c3c2CC2CCC3O2)s1 (stereo not drawn) [Compound 34, 3-(5-(tert-butyl)thiazol-2-yl)-1-(pyrazin-2-yl)-1,4,5,6,7,8-hexahydro-5,8-epoxycyclohepta[c]pyrazole]	0.24	99.7	–	–
CCC(C)(C)c1noc(-c2nn(-c3cnccn3)c3c2CC2CCC3O2)n1 (stereo not drawn) [Compound 36, 3-(3-(tert-pentyl)-1,2,4-oxadiazol-5-yl)-1-(pyrazin-2-yl)-1,4,5,6,7,8-hexahydro-5,8-epoxycyclohepta[c]pyrazole]	0.04	99.8	–	–
CC(C)(C)c1nnc(-c2nn(-c3cnccn3)c3c2CC2CCC3O2)o1 (stereo not drawn) [Compound 39, 3-(5-(tert-butyl)-1,3,4-oxadiazol-2-yl)-1-(pyrazin-2-yl)-1,4,5,6,7,8-hexahydro-5,8-epoxycyclohepta[c]pyrazole]	0.26	100	–	–
CC(C)(C)c1cnc(-c2nn(-c3cnccn3)c3c2CC2CCC3O2)o1 (stereo not drawn) [Compound 40, 3-(5-(tert-butyl)oxazol-2-yl)-1-(pyrazin-2-yl)-1,4,5,6,7,8-hexahydro-5,8-epoxycyclohepta[c]pyrazole]	0.13	99.7	–	–
CC(C)(C)c1csc(-c2nn(-c3c[n+]([O-])ccn3)c3c2CC2CCC3O2)n1 (stereo not drawn) [Compound 44, 3-(3-(4-(tert-butyl)thiazol-2-yl)-5,6,7,8-tetrahydro-5,8-epoxycyclohepta[c]pyrazol-1(4H)-yl)pyrazine 1-oxide]	46.3	84.6	–	–
CC(C)(C)NC(=O)c1nn(-c2cnccn2)c2c1C1CCC(C2)O1 (stereo not drawn) [Compound 45]	22.9	98.1	–	–
CC(C)(C)NC(=O)c1c2c(nn1-c1cnccn1)CC1CCC2O1 (stereo not drawn) [Compound 46]	1650	85.8	–	–
CC(C)(C)NC(=O)c1nn(-c2ccc(F)cc2F)c2c1C1CCC(C2)O1 (stereo not drawn) [Compound 47]	559	82.5	–	–
CC(C)(C)NC(=O)c1nn(-c2c[n+]([O-])ccn2)c2c1C1CCC(C2)O1 (stereo not drawn) [Compound 48]	1.98	99.9	–	–
CC(C)(C)NC(=O)c1c2c(nn1-c1c[n+]([O-])ccn1)CC1CCC2O1 (stereo not drawn) [Compound 49]	2670	80.3	–	–
